The subject of data set [1] is parent elite stiff stalk inbred corn. As to the kind of experiment: Postemergence effect of ALS herbicides, glyphosate and glufosinate (fresh weight, visual injury). Conditions: 200 g/ha (glyphosate 3472 g ae/ha, glufosinate ammonium 1870 g/ha), mean of four replications; for % Visual Injury Parent elite stiff stalk inbred: 2 weeks after treatment, 0% no injury, 100% plant death; for Fresh Weight (g) Parent elite stiff stalk inbred: applied two weeks after planting, fresh shoots 2 weeks after treatment, untreated 76.4 g.

In data set [2] the test system is heterozygous GAT-HRA corn. Described as above. Conditions: 200 g/ha (glyphosate 3472 g ae/ha, glufosinate ammonium 1870 g/ha), mean of four replications; for % Visual Injury Heterozygous GAT-HRA: 2 weeks after treatment, 0% no injury, 100% plant death; for Fresh Weight (g) Heterozygous GAT-HRA: applied two weeks after planting, fresh shoots 2 weeks after treatment, untreated 98.8 g.

For data set [3], the system named is heterozygous GAT-HRA corn. Briefly: Preemergence effect of ALS herbicides (fresh weight, visual injury). Conditions: 200 g/ha, mean of four replications; for % Visual Injury Heterozygous GAT-HRA: 4 weeks after treatment, 0% no injury, 100% plant death; for Fresh Weight (g) Heterozygous GAT-HRA: fresh shoots 4 weeks after treatment, untreated 47.0 g.
Data set [4] concerns parent elite stiff stalk inbred corn. The data set is described as above. Conditions: 200 g/ha, mean of four replications; for % Visual Injury Patent elite stiff stalk inbred: 4 weeks after treatment, 0% no injury, 100% plant death; for Fresh Weight (g) patent elite stiff stalk inbred: fresh shoots 4 weeks after treatment, untreated 36.7 g.

For `Cc1ccn2nc(S(=O)(=O)Nc3c(F)cccc3F)nc2n1` [Flumetsulam, N-(2,6-difluorophenyl)-5-methyl[1,2,4]triazolo[1,5-a]pyrimidine-2-sulfonamide], the “% Visual Injury Parent elite stiff stalk inbred” value in data set [1] is 85%. The “% Visual Injury Heterozygous GAT-HRA” value in data set [2] came to 3%; in data set [3], 13%. In addition, in data set [4], the “% Visual Injury Patent elite stiff stalk inbred” value is given as 13%.

In the case of `COc1nc(C)nc(NC(=O)NS(=O)(=O)c2ccccc2Cl)n1` [Chlorsulfuron, 2-chloro-N-[[(4-methoxy-6-methyl-1,3,5-triazin-2-yl)amino]-carbonyl]benzenesulfonamide], the “% Visual Injury Parent elite stiff stalk inbred” value in data set [1] is on record as 100%. Besides, the “% Visual Injury Heterozygous GAT-HRA” value in data set [2] is on record as 13%; in data set [3], 33%. In addition, in data set [4], the “% Visual Injury Patent elite stiff stalk inbred” value came to 100%.

Regarding `COc1cc(OC)nc(NC(=O)NS(=O)(=O)c2cc(NC=O)ccc2C(=O)N(C)C)n1` [Foramsulfuron, 2-[[[[(4,6-dimethoxy-2-pyrimidinyl)amino]carbonyl]amino]sulfonyl]-4-(formylamino)-N,N-dimethylbenzamide], the “% Visual Injury Parent elite stiff stalk inbred” value in data set [1] is recorded as 28%. In addition, the “% Visual Injury Heterozygous GAT-HRA” value in data set [2] turned out to be 8%; in data set [3] it was 7%. Also, the “% Visual Injury Patent elite stiff stalk inbred” value in data set [4] was 5%.

With `COC(=O)c1cccc(C)c1S(=O)(=O)NC(=O)Nc1nc(OCC(F)(F)F)nc(N(C)C)n1` [Triflusulfuron-methyl], in data set [1], the “% Visual Injury Parent elite stiff stalk inbred” value is 100% and the “Fresh Weight (g) Parent elite stiff stalk inbred” value amounted to 2.1 g. In data set [2], the “% Visual Injury Heterozygous GAT-HRA” value is given as 8% and the “Fresh Weight (g) Heterozygous GAT-HRA” value turned out to be 110.9 g. Further, in data set [3], the “% Visual Injury Heterozygous GAT-HRA” value is reported as 5% and the “Fresh Weight (g) Heterozygous GAT-HRA” value is recorded as 53.5 g. In addition, in data set [4], the “% Visual Injury Patent elite stiff stalk inbred” value is listed as 100% and the “Fresh Weight (g) patent elite stiff stalk inbred” value is recorded as 26.3 g.

Take `CCOc1ccccc1OS(=O)(=O)NC(=O)Nc1nc(OC)cc(OC)n1` [Ethoxysulfuron, 2-ethoxyphenyl[[(4,6-dimethoxy-2-pyrimidinyl)amino]carbonyl]sulfamate]: the “% Visual Injury Parent elite stiff stalk inbred” value in data set [1] was determined as 88%. Further, the “% Visual Injury Heterozygous GAT-HRA” value in data set [2] amounted to 15%; in data set [3], 25%. Also, the “% Visual Injury Patent elite stiff stalk inbred” value in data set [4] is 63%.

Consider `CCCOc1nn(C(=O)NS(=O)(=O)c2ccccc2C(=O)OC)c(=O)n1C` [Propoxycarbazone Na^+, methyl 2-[[[(4,5-dihydro-4-methyl-5-oxo-3-propoxy-1H-1,2,4-triazol-1-yl)carbonyl]amino]sulfonyl]benzoate], for which, in data set [1], the “% Visual Injury Parent elite stiff stalk inbred” value was 100% and the “Fresh Weight (g) Parent elite stiff stalk inbred” value is given as 1.9 g. In data set [2], the “% Visual Injury Heterozygous GAT-HRA” value was found to be 9% and the “Fresh Weight (g) Heterozygous GAT-HRA” value was found to be 101.2 g. Moreover, in data set [3], the “% Visual Injury Heterozygous GAT-HRA” value is 100% and the “Fresh Weight (g) Heterozygous GAT-HRA” value stood at 46.7 g. In addition, in data set [4], the “% Visual Injury Patent elite stiff stalk inbred” value is on record as 100% and the “Fresh Weight (g) patent elite stiff stalk inbred” value came to 0.6 g.

For the compound `COc1cc(OC)nc(NC(=O)NS(=O)(=O)c2ncccc2OCC(F)(F)F)n1` [Trifloxysulfuron Na^+, N-[[(4,6-dimethoxy-2-pyrimidinyl)amino]-carbonyl]-3-(2,2,2-trifluoroethoxy)-2-pyridinesulfonamide], in data set [1], the “% Visual Injury Parent elite stiff stalk inbred” value is recorded as 100% and the “Fresh Weight (g) Parent elite stiff stalk inbred” value was found to be 1.0 g. In data set [2], the “% Visual Injury Heterozygous GAT-HRA” value was 29% and the “Fresh Weight (g) Heterozygous GAT-HRA” value is recorded as 86.6 g. Moreover, in data set [3], the “% Visual Injury Heterozygous GAT-HRA” value is 0% and the “Fresh Weight (g) Heterozygous GAT-HRA” value was 50.8 g. Also, in data set [4], the “% Visual Injury Patent elite stiff stalk inbred” value is reported as 100% and the “Fresh Weight (g) patent elite stiff stalk inbred” value is on record as 0.0 g.

In the case of `COc1cc(OC)nc(NC(=O)NS(=O)(=O)c2ncccc2C(=O)N(C)C)n1` [Nicosulfuron, 2-[[[[(4,6-dimethoxy-2-pyrimidinyl)amino]carbonyl]amino]sulfonyl]-N,N-dimethyl-3-pyridinecarboxamide], in data set [1], the “% Visual Injury Parent elite stiff stalk inbred” value worked out at 24% and the “Fresh Weight (g) Parent elite stiff stalk inbred” value came out at 62.7 g. In addition, in data set [2], the “% Visual Injury Heterozygous GAT-HRA” value stood at 0% and the “Fresh Weight (g) Heterozygous GAT-HRA” value was determined as 94.7 g. Moreover, in data set [3], the “% Visual Injury Heterozygous GAT-HRA” value is recorded as 0% and the “Fresh Weight (g) Heterozygous GAT-HRA” value is on record as 50.3 g. Moreover, in data set [4], the “% Visual Injury Patent elite stiff stalk inbred” value came out at 43% and the “Fresh Weight (g) patent elite stiff stalk inbred” value is 33.6 g.

Regarding Imazamethabenz-methyl, in data set [1], the “% Visual Injury Parent elite stiff stalk inbred” value came out at 11% and the “Fresh Weight (g) Parent elite stiff stalk inbred” value came out at 66.9 g. Also, in data set [2], the “% Visual Injury Heterozygous GAT-HRA” value is 16% and the “Fresh Weight (g) Heterozygous GAT-HRA” value turned out to be 95.0 g. Further, in data set [3], the “% Visual Injury Heterozygous GAT-HRA” value amounted to 15% and the “Fresh Weight (g) Heterozygous GAT-HRA” value is recorded as 48.5 g. For the same compound, in data set [4], the “% Visual Injury Patent elite stiff stalk inbred” value came to 61% and the “Fresh Weight (g) patent elite stiff stalk inbred” value is reported as 36.2 g.

For `CP(=O)(O)CCC(N)C(=O)O` (stereo not drawn) [Glufosinate ammonium], in data set [1], the “% Visual Injury Parent elite stiff stalk inbred” value was 99% and the “Fresh Weight (g) Parent elite stiff stalk inbred” value is 2.4 g. In data set [2], the “% Visual Injury Heterozygous GAT-HRA” value worked out at 1% and the “Fresh Weight (g) Heterozygous GAT-HRA” value came to 112.3 g.

`CO/N=C(/C)c1cccc(Oc2nc(OC)cc(OC)n2)c1C(=O)OC` [Pyriminobac-methyl]: in data set [1], the “% Visual Injury Parent elite stiff stalk inbred” value turned out to be 93% and the “Fresh Weight (g) Parent elite stiff stalk inbred” value was found to be 7.6 g. In data set [2], the “% Visual Injury Heterozygous GAT-HRA” value is listed as 4% and the “Fresh Weight (g) Heterozygous GAT-HRA” value was found to be 95.2 g. For the same compound, in data set [3], the “% Visual Injury Heterozygous GAT-HRA” value is recorded as 20% and the “Fresh Weight (g) Heterozygous GAT-HRA” value is 39.9 g. Moreover, in data set [4], the “% Visual Injury Patent elite stiff stalk inbred” value came out at 83% and the “Fresh Weight (g) patent elite stiff stalk inbred” value came to 30.4 g.

Consider `COc1nn(C(=O)NS(=O)(=O)c2ccccc2OC(F)(F)F)c(=O)n1C` [Flucarbazone Na^+, 4,5-dihydro-3-methoxy-4-methyl-5-oxo-N-[[2-(trifluoromethoxy)phenyl]sulfonyl]-1H-1,2,4-triazole-1-carboxamide], for which, in data set [1], the “% Visual Injury Parent elite stiff stalk inbred” value was found to be 100%. For the same compound, the figures for the “% Visual Injury Heterozygous GAT-HRA” value in data set [2] and in data set [3] were 14% and 40%, respectively. For the same compound, in data set [4], the “% Visual Injury Patent elite stiff stalk inbred” value stood at 100%.

As for `COCc1cnc(C2=NC(C)(C(C)C)C(=O)N2)c(C(=O)O)c1` (stereo not drawn) [Imazamox], in data set [1], the “% Visual Injury Parent elite stiff stalk inbred” value was 100% and the “Fresh Weight (g) Parent elite stiff stalk inbred” value stood at 2.2 g. Also, in data set [2], the “% Visual Injury Heterozygous GAT-HRA” value turned out to be 4% and the “Fresh Weight (g) Heterozygous GAT-HRA” value is 90.9 g. Moreover, in data set [3], the “% Visual Injury Heterozygous GAT-HRA” value is given as 13% and the “Fresh Weight (g) Heterozygous GAT-HRA” value is reported as 47.5 g. Moreover, in data set [4], the “% Visual Injury Patent elite stiff stalk inbred” value stood at 99% and the “Fresh Weight (g) patent elite stiff stalk inbred” value turned out to be 0.8 g.

For the compound `COC(=O)c1c(Cl)nn(C)c1S(=O)(=O)NC(=O)Nc1nc(OC)cc(OC)n1` [Halosulfuron-methyl, methyl 3-chloro-5-[[[[(4,6-dimethoxy-2-pyrimidinyl)amino]-carbonyl]amino]sulfonyl]-1-methyl-1H-pyrazole-4-carboxylate], the “% Visual Injury Parent elite stiff stalk inbred” value in data set [1] came out at 14%. In addition, the “% Visual Injury Heterozygous GAT-HRA” value in data set [2] is 8%; in data set [3] it was 15%. The “% Visual Injury Patent elite stiff stalk inbred” value in data set [4] is recorded as 30%.

The values above are taken from patent publication US20080234130A1, “Compositions providing tolerance to multiple herbicides and methods of use thereof” (priority 2005, published 2008).
